Laboratory results reported in PMC10535535, “Imidazopyridine-Based Thiazole Derivatives as Potential Antidiabetic Agents: Synthesis, In Vitro Bioactivity, and In Silico Molecular Modeling Approach” (Pharmaceuticals, 2023).

The compounds below were run against α-glucosidase (assay: α-glucosidase inhibition assay (pNPG, spectrophotometric)). Settings: in vitro, pNPG substrate, 37 °C, triplicate; read-out: IC50 ± SEM.
Assay type: biochemical
Description: With slight modification to an earlier technique, the α-glucosidase inhibition profiles of the synthesized scaffolds were assessed spectrophotometrically. Amounts of 10 μL of the sample, 120 μL of 100 mM potassium phosphate buffer, and […] of a 0.5 U/mL α-glucosidase solution (0.3 mM, in buffer) were combined for each chemical. […] Each combination was incubated at 37 °C for a separate period of 15 min. […] Once more, the mixture was incubated for 15 min at 37 °C. At that point, 80 μL of a 0.2 M sodium carbonate solution was administered to terminate the process. The mixture that included no enzymes also functioned as a blank sample. At 405 nm, the absorbance was finally calculated. To accurately measure the background absorbance, the blank sample, which replaced the substrate with 50 μL of the buffer, was examined. […] Assuming that A represents the absorbance of the control without test samples and B represents the absorbance with test samples present, the percentage of enzyme inhibition was computed as (1 B/A) 100. […] 4.4. Assay protocol for α-glucosidase inhibition The α-glucosidase inhibition profiles of synthesized scaffolds were determined spectrophotometrically, with some modifications to an earlier method. For each chemical, 10 μL of the sample, 120 μL of 100 mM potassium phosphate buffer, and 20 μL of 0.5 U/mL alpha-glucosidase solution was mixed (0.3 mM, in buffer). […] At 37 °C, each mixture was incubated for a separate 15 minutes. The enzymatic reaction was initiated by adding 20 μL of the substrate 4-nitrophenyl- D-α-glucopyranoside (pNPG) (5 mM) to the solution. The mixture was once more incubated at 37 °C for 15 minutes. To stop the process at that point, 80μL of sodium carbonate solution were injected (0.2 M). Additionally, the mixture without any enzymes served as a blank sample. The absorbance was finally determined at 405 nm. The blank sample, in which the substrate was swapped out for 50 μL of the buffer, was analyzed to properly quantify the background absorbance. […] The percentage of enzyme inhibition was calculated as (1 B/A) 100, assuming that A represents the absorbance of the control without test samples and B represents the absorbance with test samples present. The analyses were carried out in triplicate, and the results were presented as mean SD. 4.5. […] On the Discovery Studio R2 64-bit Client system, interactive molecular structure visualization and analysis were done. From the RCSB Protein Data Bank, the three-dimensional (3D) structure of α-glucosidase was retrieved (PDB). The chemical structures of the ligands were obtained from the Pub Chem compound database. Using Open Babel, the PDB files were converted into PDBQT files. For docking analysis, the PDB coordinates of the ligands and targets were optimized. Geometry optimization is carried out using Gaussian 09 (adding missing residues). […] Further details were summarized in our previous articles.

**Q.** For O=[N+]([O-])c1cc(-c2csc(N/N=C\c3cnc4ccc(F)cn34)n2)cc(C(F)(F)F)c1 [4a], which IC50 is on record?
**A.** Its IC50 is 6.85 ± 2.18 µM.

**Q.** Cc1ccccc1-c1csc(N/N=C\c2cnc3ccc(F)cn23)n1 [4h] was tested. Which IC50 did it give?
**A.** The IC50 was 43.2 ± 6.16 µM.

**Q.** How did the IC50 turn out when O=[N+]([O-])c1ccc(O)c(-c2csc(N/N=C\c3cnc4ccc(F)cn34)n2)c1 [4o, (Z)-2-(2-(2-((6-fluoroimidazo[1,2-a]pyridin-3-yl)methylene)hydrazineyl)thiazol-4-yl)-4-nitrophenol] was run?
**A.** Its IC50 is 7.16 ± 1.4 µM.

**Q.** With Cc1ccc(-c2csc(N/N=C\c3cnc4ccc(F)cn34)n2)c([N+](=O)[O-])c1 [4j] as the compound, how does the IC50 read?
**A.** Its IC50 is 22.6 ± 3.55 µM.

**Q.** For COc1cc(O)ccc1-c1csc(N/N=C\c2cnc3ccc(F)cn23)n1 [4i], which IC50 is on record?
**A.** Its IC50 is 34.9 ± 5.84 µM.

**Q.** How did the IC50 turn out when Oc1ccc(-c2csc(N/N=C\c3cnc4ccc(F)cn34)n2)c(O)c1 [4p] was run?
**A.** Its IC50 is 10.5 ± 2.2 µM.

**Q.** Which IC50 does the source give for Cc1ccc(-c2csc(N/N=C\c3cnc4ccc(F)cn34)n2)c(C)c1 [4f] here?
**A.** Its IC50 is 51 ± 5.8 µM.

**Q.** How did the IC50 turn out when O=[N+]([O-])c1cc(Cl)ccc1-c1csc(N/N=C\c2cnc3ccc(F)cn23)n1 [4b] was run?
**A.** Its IC50 is 13.6 ± 1.67 µM.

**Q.** How did the IC50 turn out when COc1cc(C)ccc1-c1csc(N/N=C\c2cnc3ccc(F)cn23)n1 [4e] was run?
**A.** Its IC50 is 44.9 ± 5.27 µM.

**Q.** How did the IC50 turn out when Fc1ccc2ncc(/C=N\Nc3nc(-c4ccc(Cl)cc4Cl)cs3)n2c1 [4l] was run?
**A.** Its IC50 is 19.3 ± 2.58 µM.

**Q.** Which IC50 does the source give for CN(C)c1ccc(-c2csc(N/N=C\c3cnc4ccc(F)cn34)n2)cc1 [4d] here?
**A.** Its IC50 is 32.1 ± 4.29 µM.

**Q.** How did the IC50 turn out when COc1ccc(-c2csc(N/N=C\c3cnc4ccc(F)cn34)n2)c(OC)c1 [4m] was run?
**A.** Its IC50 is 56.3 ± 5.94 µM.

**Q.** With Cc1ccc(-c2ccc(-c3csc(N/N=C\c4cnc5ccc(F)cn45)n3)cc2)cc1 [4n] as the compound, how does the IC50 read?
**A.** The IC50 was 61.4 ± 4.56 µM.

**Q.** How did the IC50 turn out when O=[N+]([O-])c1ccc(C(F)(F)F)c(-c2csc(N/N=C\c3cnc4ccc(F)cn34)n2)c1 [4g] was run?
**A.** The IC50 was 5.57 ± 3.45 µM.

**Q.** How did the IC50 turn out when Fc1ccc2ncc(/C=N\Nc3nc(-c4ccc(-c5ccccc5)cc4)cs3)n2c1 [4c] was run?
**A.** Its IC50 is 63.5 ± 5.28 µM.

**Q.** For Cc1cc(Cl)ccc1-c1csc(N/N=C\c2cnc3ccc(F)cn23)n1 [4k], which IC50 is on record?
**A.** The IC50 was 34.7 ± 5.23 µM.

Same assay, conditions: unit not given; in µM

**Q.** Which IC50 does the source give for COc1cc(O)ccc1-c1csc(N/N=C\c2cnc3ccc(F)cn23)n1 [4i] here?
**A.** The IC50 was 34.91 ± 5.84.

Same assay, conditions: versus acarbose

**Q.** Cc1ccc(-c2csc(N/N=C\c3cnc4ccc(F)cn34)n2)c([N+](=O)[O-])c1 [4j] was tested. Which “potency as compared to the standard drug” value did it give?
**A.** Its value is “two-fold more potency”.

**Q.** Fc1ccc2ncc(/C=N\Nc3nc(-c4ccc(Cl)cc4Cl)cs3)n2c1 [4l] was tested. Which “potency as compared to the standard drug” value did it give?
**A.** The value was “two-fold more potency”.
